Marks after values point to notes of the source that are not given here.
Tested on: Wister rats exposed to cold stress
Test: Blood pressure by tail-cuff method in rats exposed to cold stress
Type: in vivo, rat
Settings: Example 5, day 10, 3 mg/kg body weight of single tripeptide oral
From the text: 24 male Wister rats (body weight about 300 g) were preliminarily fed for one week. During the preliminary feeding period and the experimental period, the rats were restrictively fed with commercial diet (trade name “CE-2” manufactured by NIHON CREA CO.), and allowed to take water ad libitum.
After the preliminary feeding period, the rats were divided into three groups (eight rats each), namely, (1) the group not exposed to stress and given saline, (2) the group exposed to stress and given saline, and (3) the group exposed to stress, and given VPP and IPP. The animals of groups (2) and (3) were exposed to stress for 9 days by putting them in a cold room (4° C.) for 4 hours per one day.
On the day 10, rats of groups (1) and (2) were given 1 ml of saline, and rats of group (3) were given 1 ml of saline containing 3 mg/kg body weight each of IPP and VPP synthesized in Example 3, by forcible administration into stomach via an oral sonde. After the administration, the rats of groups (2) and (3) were exposed to cold stress for 4 hours. Two hours after finishing the stress loading, blood pressure of the rats in each group was measured by tail-cuff method using a non-warming, non-invasive rat sphygmomanometer (Type PE-300, manufactured by CSI CO.).
After the preliminary feeding period, the rats were divided into three groups (eight rats each), namely, (1) the group given saline, (2) the group given VPP, and (3) the group given IPP. The rats of groups (1) to (3) were exposed to stress for 9 days by, as in Example 4, putting them in a cold room (4° C.) for 4 hours per one day.
On the day 10, rats of group (1) were given 1 ml of saline, and rats of group (2) and (3) were given 1 ml of saline containing 3 mg/kg body weight of IPP or 3 mg/kg body weight of VPP, respectively, synthesized in Example 3, by forcible administration into stomach via an oral sonde. After the administration, the rats of groups (1) to (3) were exposed to cold stress for 4 hours, and blood pressure was measured as in Example 4.
The test was carried out in the same way as in Example 5 except that the group (1) rats were given 2 ml of saline, and the rats in group (2) were given 5 ml/kg body weight of the fermented milk obtained in Example 1, and the rats in group (3) were given 2 ml of saline containing 150 mg/kg of the purified tripeptide fraction powders obtained in Example 2, respectively. After the administration of the samples and exposure to stress, the blood pressure of each rat was measured.

| Substance | Diastolic Blood Pressure | Systolic Blood Pressure |
| --- | --- | --- |
| Ile-Pro-Pro [IPP] | 102* mmHg | 130* mmHg |
| Val-Pro-Pro [VPP] | 101* mmHg | 131* mmHg |

— patent US6410685B1, “Antistress agents and functional foods” (Calpis Co., Ltd., priority 1997, dated 2002)
